In ChEMBL document CHEMBL4680293, “Tubulin inhibitory activity of a novel colchicine-binding compounds based on a dinaphthospiropyranran scaffold” (Bioorg Med Chem, 2021):
The source made the active and inactive calls. The calls are words filed in the database; no cut-off is given here.

Legend:
NCI-H460 = assay: Anti-cancer activity against human NCI-H460 cells assessed as cell growth inhibition measured after 48 hrs by SRB method; type: functional, cell-based
NCI-H23 = assay: Anti-cancer activity against human NCI-H23 cells assessed as cell growth inhibition measured after 48 hrs by SRB method; type: functional, cell-based
TK-10 = assay: Anti-cancer activity against human TK-10 cells assessed as cell growth inhibition measured after 48 hrs by SRB method; type: functional, cell-based
HOP-92 = assay: Anti-cancer activity against human HOP-92 cells assessed as cell growth inhibition measured after 48 hrs by SRB method; type: functional, cell-based
MDA-MB-435 = assay: Anti-cancer activity against human MDA-MB-435 cells assessed as cell growth inhibition measured after 48 hrs by SRB method; type: functional, cell-based
[1] = Anti-cancer activity against human renal cancer cells assessed as cell growth inhibition measured after 48 hrs by SRB method; type: functional; conditions: Renal cancer cell line
Malme-3M = assay: Anti-cancer activity against human Malme-3M cells assessed as cell growth inhibition measured after 48 hrs by SRB method; type: functional, cell-based
[2] = Anti-cancer activity against human colon cancer cells assessed as cell growth inhibition measured after 48 hrs by SRB method; type: functional; conditions: Colon cancer cell line
RXF 393 = assay: Anti-cancer activity against human RXF 393 cells assessed as cell growth inhibition measured after 48 hrs by SRB method; type: functional, cell-based
UO-31 = assay: Anti-cancer activity against human UO-31 cells assessed as cell growth inhibition measured after 48 hrs by SRB method; type: functional, cell-based
UACC-62 = assay: Anti-cancer activity against human UACC-62 cells assessed as cell growth inhibition measured after 48 hrs by SRB method; type: functional, cell-based
Leukemia cell = assay: Anti-cancer activity against human leukemia cells assessed as cell growth inhibition measured after 48 hrs by SRB method; type: functional
[3] = Anti-cancer activity against human non-small lung cancer cells assessed as cell growth inhibition measured after 48 hrs by SRB method; type: functional; conditions: Non-small cell lung cancer cell line
A498 = assay: Anti-cancer activity against human A498 cells assessed as cell growth inhibition measured after 48 hrs by SRB method; type: functional, cell-based
HCC 2998 = assay: Anti-cancer activity against human HCC2998 cells assessed as cell growth inhibition measured after 48 hrs by SRB method; type: functional, cell-based
Tubulin (Homo sapiens) [4] = target: T1, Tubulin (Homo sapiens) (UniProt P68371+Q9H4B7+P0DPH7+P68366+Q13509+Q71U36+P04350+Q3ZCM7+P07437+P68363+Q9BQE3+Q6PEY2+Q13885+Q9BVA1+Q9BUF5); assay: Disruption of tubulin in human HCT-116 cells assessed as induction of tubulin reorganization at 20 uM after 48 hrs by DAPI staining based immunofluorescence method; type: cell-based
Tubulin (Homo sapiens) [5] = target: T1, Tubulin (Homo sapiens); assay: Inhibition of tubulin (unknown origin) assessed as inhibition of tubulin polymerization at 10 uM measured for 50 mins by fluorescence based analysis; type: protein-complex assay
COLO 205 = assay: Anti-cancer activity against human COLO205 cells assessed as cell growth inhibition measured after 48 hrs by SRB method; type: functional, cell-based
OVCAR-8 = assay: Anti-cancer activity against human OVCAR-8 cells assessed as cell growth inhibition measured after 48 hrs by SRB method; type: functional, cell-based
LOX IMVI = assay: Anti-cancer activity against human LOX IMVI cells assessed as cell growth inhibition measured after 48 hrs by SRB method; type: functional, cell-based
U-251 = assay: Anti-cancer activity against human U251 cells assessed as cell growth inhibition measured after 48 hrs by SRB method; type: functional, cell-based
IGROV-1 = assay: Anti-cancer activity against human IGROV1 cells assessed as cell growth inhibition measured after 48 hrs by SRB method; type: functional, cell-based
MCF7 = assay: Anti-cancer activity against human MCF-7 cells assessed as cell growth inhibition measured after 48 hrs by SRB method; type: functional, cell-based
[6] = Anti-cancer activity against human melanoma cells assessed as cell growth inhibition measured after 48 hrs by SRB method; type: functional; conditions: Melanoma cell line
NCI-H522 = assay: Anti-cancer activity against human NCI-H522 cells assessed as cell growth inhibition measured after 48 hrs by SRB method; type: functional, cell-based
MOLT-4 = assay: Anti-cancer activity against human MOLT-4 cells assessed as cell growth inhibition measured after 48 hrs by SRB method; type: functional, cell-based
[7] = Anti-cancer activity against human prostate cancer cells assessed as cell growth inhibition measured after 48 hrs by SRB method; type: functional; conditions: Prostate tumor cell line
SF-268 = assay: Anti-cancer activity against human SF-268 cells assessed as cell growth inhibition measured after 48 hrs by SRB method; type: functional, cell-based

`C1=C2CNCC3=Cc4c(ccc5ccccc45)OC23Oc2ccc3ccccc3c21` gave an IC50 (NCI-H460; NCI-H460, 48 h) of 3.72 µM, a GI50 (NCI-H460; NCI-H460, time 48 hrs) of 3.24 µM and a TGI (NCI-H460; NCI-H460, time 48 hrs) of 13.2 µM. The CC50 (NCI-H460; NCI-H460, time 48 hrs, read-out: LC50 (the source's name)) was 4.14 µM, the IC50 (NCI-H23; NCI-H23, 48 h) was 20.9 µM and the GI50 (NCI-H23; NCI-H23, time 48 hrs) was 6.92 µM. It also gave a TGI (NCI-H23; NCI-H23, time 48 hrs) of 31.6 µM, an IC50 (TK-10; TK-10, 48 h) of 26.9 µM and a GI50 (TK-10; TK-10, time 48 hrs) of 9.12 µM. The TGI (TK-10; TK-10, time 48 hrs) was 27.5 µM, the IC50 (HOP-92; HOP-92, 48 h) was 26.9 µM and the GI50 (HOP-92; HOP-92, time 48 hrs) was 2.88 µM. For the same molecule, the TGI (HOP-92; HOP-92, time 48 hrs) was 17 µM, the IC50 (MDA-MB-435; MDA-MB-435, 48 h) was 2.4 µM and the GI50 (MDA-MB-435; MDA-MB-435, time 48 hrs) was 1.41 µM. For the same molecule, the TGI (MDA-MB-435; MDA-MB-435, time 48 hrs) was 3.24 µM, the GI50 [1] was 3.98 µM and the IC50 (Malme-3M; 48 h) was 36.3 µM. The GI50 (Malme-3M; time 48 hrs) was 12.6 µM, the LC50 (50% lethal concentration) (Malme-3M; time 48 hrs) was 4 µM and the TGI (Malme-3M; time 48 hrs) was 38 µM. For the same molecule, the GI50 [2] was 3.09 µM, the IC50 (RXF 393; RXF 393, 48 h) was 5.01 µM and the GI50 (RXF 393; RXF 393, time 48 hrs) was 1.78 µM. It also gave a TGI (RXF 393; RXF 393, time 48 hrs) of 6.17 µM, a CC50 (RXF 393; RXF 393, time 48 hrs, read-out: LC50 (the source's name)) of 4.32 µM and an IC50 (UO-31; UO-31, 48 h) of 17.4 µM. The GI50 (UO-31; UO-31, time 48 hrs) was 3.55 µM, the TGI (UO-31; UO-31, time 48 hrs) was 21.4 µM and the CC50 (UO-31; UO-31, time 48 hrs, read-out: LC50 (the source's name)) was 4.16 µM. The IC50 (UACC-62; UACC-62, 48 h) was 12.9 µM, the GI50 (UACC-62; UACC-62, time 48 hrs) was 5.01 µM and the LC50 (50% lethal concentration) (UACC-62; UACC-62, time 48 hrs) was 4.16 µM. It also gave a TGI (UACC-62; UACC-62, time 48 hrs) of 21.9 µM, a GI50 (Leukemia cell) of 3.16 µM and a GI50 [3] of 5.13 µM. The IC50 (A498; A498, 48 h) was 16.2 µM, the GI50 (A498; A498, time 48 hrs) was 3.89 µM and the TGI (A498; A498, time 48 hrs) was 17 µM. It also gave a CC50 (A498; A498, time 48 hrs, read-out: LC50 (the source's name)) of 4.34 µM, an IC50 (HCC 2998; HCC 2998, 48 h) of 8.51 µM and a GI50 (HCC 2998; HCC 2998, time 48 hrs) of 3.98 µM. For the same molecule, the LC50 (lethal concentration, 50% cell kill) (HCC 2998; HCC 2998, time 48 hrs) was 4.11 µM, the TGI (HCC 2998; HCC 2998, time 48 hrs) was 19.5 µM and the Activity (Tubulin (Homo sapiens) [4]) was “Active”. For the same molecule, the inhibition (Tubulin (Homo sapiens) [5]) was “Active”, the IC50 (COLO 205; COLO 205, 48 h) was 3.72 µM and the GI50 (COLO 205; COLO 205, time 48 hrs) was 2.09 µM. For the same molecule, the TGI (COLO 205; COLO 205, time 48 hrs) was 4.27 µM, the CC50 (COLO 205; COLO 205, time 48 hrs, read-out: LC50 (the source's name)) was 5.07 µM and the IC50 (OVCAR-8; OVCAR-8, 48 h) was 4.79 µM. The GI50 (OVCAR-8; OVCAR-8, time 48 hrs) was 3.02 µM, the TGI (OVCAR-8; OVCAR-8, time 48 hrs) was 14.8 µM and the CC50 (OVCAR-8; OVCAR-8, time 48 hrs, read-out: LC50 (the source's name)) was 4 µM. It also gave an IC50 (LOX IMVI; 48 h) of 3.39 µM, a GI50 (LOX IMVI; time 48 hrs) of 2.45 µM and an LC50 (50% lethal concentration) (LOX IMVI; time 48 hrs) of 4 µM. It also gave a TGI (LOX IMVI; time 48 hrs) of 7.41 µM, an IC50 (U-251; U-251, 48 h) of 5.13 µM and a GI50 (U-251; U-251, time 48 hrs) of 3.24 µM. For the same molecule, the LC50 (concentration killing 50% of cells) (U-251; U-251, time 48 hrs) was 4.21 µM, the TGI (U-251; U-251, time 48 hrs) was 14.8 µM and the IC50 (IGROV-1; IGROV-1, 48 h) was 20.9 µM. For the same molecule, the GI50 (IGROV-1; IGROV-1, time 48 hrs) was 9.55 µM, the LC50 (concentration killing 50% of cells) (IGROV-1; IGROV-1, time 48 hrs) was 4.08 µM and the TGI (IGROV-1; IGROV-1, time 48 hrs) was 28.8 µM. It also gave an IC50 (MCF7; MCF7, 48 h) of 3.98 µM, a GI50 (MCF7; MCF7, time 48 hrs) of 2.82 µM and a TGI (MCF7; MCF7, time 48 hrs) of 12.6 µM. The CC50 (MCF7; MCF7, time 48 hrs, read-out: LC50 (the source's name)) was 4.26 µM, the GI50 [6] was 4.47 µM and the IC50 (NCI-H522; NCI-H522, 48 h) was 9.55 µM. It also gave a GI50 (NCI-H522; NCI-H522, time 48 hrs) of 3.02 µM, a TGI (NCI-H522; NCI-H522, time 48 hrs) of 13.2 µM and a CC50 (NCI-H522; NCI-H522, time 48 hrs, read-out: LC50 (the source's name)) of 4.15 µM. It also gave an IC50 (MOLT-4; MOLT-4, 48 h) of 5.13 µM, a GI50 (MOLT-4; MOLT-4, time 48 hrs) of 2.88 µM and an LC50 (MOLT-4; MOLT-4, time 48 hrs) of 4 µM. For the same molecule, the TGI (MOLT-4; MOLT-4, time 48 hrs) was 10.5 µM, the GI50 [7] was 3.39 µM and the IC50 (SF-268; SF-268, 48 h) was 12.3 µM. It also gave a GI50 (SF-268; SF-268, time 48 hrs) of 5.62 µM, a TGI (SF-268; SF-268, time 48 hrs) of 22.4 µM and a CC50 (SF-268; SF-268, time 48 hrs, read-out: LC50 (the source's name)) of 4.15 µM.
